How the values were obtained:
[1] = system: bleomycin induced pulmonary fibrosis; assay: Therapeutic inhaled itaconate in bleomycin mouse model; assay type: in vivo; details: 0.25 mg/kg oropharyngeal twice a week for two weeks from day 10 post bleomycin, WT mice
Method: Unless otherwise stated, all mice were between 8 and 12 weeks of age. Mice were housed in specific-pathogen-free conditions and given food and water ad libitum. All procedures were approved by the United Kingdom Home Office and conducted in strict accordance with the Animals (Scientific Procedures) Act 1986. […] All surgery was performed under ketamine and sodium pentobarbital anaesthesia and all efforts were made to minimize suffering. Mice were administered either 0.05U (1U/ml solution dissolved in PBS) of bleomycin sulphate (Sigma Aldrich) or 50 μl PBS via the oropharyngeal route at day 0 and culled after 7, 21 or 42 days. For therapeutic experiments mice were administered 0.25 mg/kg (1 mM solution dissolved in PBS, 50 μl) itaconic acid (Sigma Aldrich) or PBS via the oropharyngeal route twice a week, beginning 10 days after of bleomycin administration.
Lung function measurements were performed using the Flexivent system (Scireq, Montreal, Canada). After induction of anaesthesia with an i.p. injection of Pentobarbitone (50 mg/Kg, Sigma, UK) and i.m. injection of Ketamine (200 mg/Kg) (Fortdodge Animal Health Ltd, Southampton, UK), mice were tracheotomised and attached to the Flexivent ventilator via a blunt-ended 19-gauge needle. Mice were ventilated using the following settings; tidal volume of 7 ml/Kg body weight, 150 breaths/minute; positive end-expiratory pressure approximately 2 cm H2O. Standardisation of lung volume history was done by performing two deep inflations. Subsequently, measurements of dynamic resistance, dynamic elastance and dynamic compliance were determined using the snapshot-150 perturbation, a single frequency sinusoidal waveform. Resultant data was fitted using multiple linear regression to the single compartment model to determine the above parameters.
Paraffin-embedded sections (4 μm) of lungs (apical lobe) were stained with hematoxylin/eosin (H&E) and Sirius Red. For assessment of fibrosis, the semi-quantitative Ashcroft scoring system was used as previously described (Hubner et al., 2008, Biotechniques, 44(4): 507-11). All scoring and measurements were performed by 3-5 blinded independent observers.
Total RNA was reverse transcribed into cDNA using the High Capacity cDNA Reverse Transcription kit (Life Technologies), or GoScript reverse transcription system (Promega) for AMs, according to manufacturer's instructions. Real-time PCR was performed using fast-qPCR mastermix (Life technologies) on a Viia-7 instrument (Applied Biosciences) with Taqman primers for murine acod1, col-1α1, col3α1, col4α1, fn1, mmp2 or human acod1, cd163, fn1, IL-16, mmp1, mmp9 using actb (Life Technologies) as housekeeping gene.

[2] = system: healthy human primary lung fibroblasts; assay: Real-time PCR gene expression in fibroblasts cultured with itaconate; assay type: cell-based; details: healthy HLFs, 10 mM itaconate, 24 h
From the text: (§1) Primary human lung fibroblasts were isolated from lung resections of patients undergoing lung cancer surgery or lung transplantation performed after informed consent as approved by an external Research Ethics Committee (REC 15/SC0101) according to the Royal Brompton Hospital protocol (Royal Brompton & Harefield NHS Foundation Trust, 2016) and cultured in complete Dulbecco's modified eagle medium (10% FBS, 100 U/ml penicillin/streptomycin) (Gibco, ThermoFisher) to passage four. Human bronchial epithelial cells (HBE) were obtained from bronchial brushings during the bronchoscopy after informed consent and approved by an external Research Ethics Committee for ILD subjects (Ref. Nos. 10/H0720/12 and 15/SC0101). HBEs were cultured in bronchia.1 e thelial growth (BEGM) medium (Lonza) to passage four. MACS enriched human AM were cultured in complete RPMI (10% FBS, 100U/ml penicillin/streptomycin, Gibco, ThermoFisher) for 24 hrs. Fibroblasts and AM were cultured with 10 mM itaconate in complete medium for 24hrs prior to cell lysis in RLT buffer (QIAGEN) containing 1% 2-Mercaptoethanol (Sigma Aldrich).

[3] = system: AMs from IPF patients; assay: Culture of AMs from IPF patients with itaconate; assay type: cell-based, human; details: AMs from IPF patients cultured with itaconate
From the text: as §1
1×10^7 BAL cells were stained with anti-CD206 (Biolegend) and Human TruStain FcX block (Biolegend) for 15 minutes at 4° C. in 0.5% FBS/2 mM EDTA in PBS prior to incubation with MACS anti-Cy7 microbeads (Miltenyi Biotec) for 15 minutes at 4° C. […]

[4] = system: primary human lung fibroblasts; assay: Seahorse mitochondrial stress test (OCR) of human lung fibroblasts cultured with itaconate; assay type: cell-based; details: IPF HLFs (increased vs healthy HLFs), 24 h incubation with itaconate
[5] = Tolerability of inhaled (oropharyngeal) itaconate in naïve mice; assay type: in vivo; details: inhaled dose of 0.25 mg/kg
Method: FIG. 18: Exogenous itaconate is anti-fibrotic. (A-C) Total BAL count, percentage of eosinophils (B) and Percentage of neutrophils (C) of PBS or itaconate dosed mice (0.25-10 mg/kg, oropharyngeal), 24 h post administration (n=4 per group). Data presented as mean±S.D.; Significance was tested by ordinary one-way ANOVA with Sidak's multiple comparison test, **P<0.01.
In order to address whether inhaled itaconate is anti-fibrotic, it was first determined a dose of itaconate that would not provoke an inflammatory response in murine airways. […] We administered inhaled (OPN) itaconate or PBS twice a week for two weeks during the fibrotic phase (starting at day 10 post bleomycin) to WT mice (FIG. 7A); this dosing strategy is in accordance with the American Thoracic guidelines for preclinical assessment of potential therapies for IPF (Jenkins et al., 2017). Subsequently pathology, fibrosis and lung function at d21 post bleomycin were assessed.

[6] = system: primary human lung fibroblasts; assay: JULI-Stage proliferation assay; assay type: cell-based; details: 10 mM itaconate, over 72 h
Method: (§2) Primary human lung fibroblasts were seeded in 96-well plate for proliferation assay (5,000 per well) or 24-well plate for wound healing assay and serum-starved overnight prior to treatment with itaconate in complete DMEM for 48-72 hrs. For wound healing assays, a standardised scratch was applied in each well using a p10 pipette tip. Images were taken in JULI-Stage system (NanoEntek) at three to five positions per well every 30 minutes and proliferation rate or wound closure were calculated using JU LI-Stage software (NanoEntek).
(§3) Human lung fibroblasts were cultured in media alone or supplemented with itaconate and assessed after 24 h-72 h. […] To assess the ability of itaconate to limit fibrosis related functions of HLFs, proliferation and wound healing assays were carried out in the presence or absence of itaconate.

[7] = system: primary human lung fibroblasts; assay: JULI-Stage wound healing (scratch) assay; assay type: cell-based; details: healthy HLFs, 10 mM itaconate, over a 48 h period
Method: as §2, §3

C=C(CC(=O)O)C(=O)O [itaconate, 2-methylidenebutanedioic acid]
Ashcroft score based on Sirius red staining ([1]; d21): significantly ameliorated
expression of Col4α1 (lung homogenate) ([1]; d21): significantly ameliorated
expression of Fn1 (lung homogenate) ([1]; d21): significantly ameliorated
lung airway compliance ([1]; d21, FlexiVent): significantly ameliorated
lung airway elastance ([1]; d21, FlexiVent): significantly ameliorated
gene expression of FN-1 [2]: downregulated
gene expression of IL-1β [2]: downregulated
pro-fibrotic and pro-inflammatory pathways [3]: inhibits
maximal respiration [4]: ameliorated
spare respiratory capacity [4]: ameliorated
tolerability (no inflammatory response in murine airways) ([5]; repeated oropharyngeal administration, naïve mice (data not shown)): well tolerated
tolerability (no inflammatory response in murine airways) ([5]; single oropharyngeal administration, naïve mice): well tolerated
proliferative capacity ([6]; HLFs from IPF patients): significantly reduced
proliferative capacity ([6]; HLFs from healthy donors): significantly reduced
ability to close a standardized wound [7]: decreased
